The source made the active and inactive calls. No rule for the calls is given here.
System: CCRIS mutagenicity, Ames/micronucleus/aberration tests
Assay: CCRIS mutagenicity studies
[1] = Test System: AMES SALMONELLA TYPHIMURIUM, Strain/Indicator: TA97, Metabolic Activation: HAMSTER, LIVER, S-9, AROCLOR 1254 (10 OR 30%), Method: PREINCUBATION
[2] = Test System: AMES SALMONELLA TYPHIMURIUM, Strain/Indicator: TA97, Metabolic Activation: NONE, Method: PREINCUBATION
[3] = Test System: AMES SALMONELLA TYPHIMURIUM, Strain/Indicator: TA97, Metabolic Activation: RAT, LIVER, S-9, AROCLOR 1254 (10 OR 30%), Method: PREINCUBATION
[4] = Test System: AMES SALMONELLA TYPHIMURIUM, Strain/Indicator: TA98, Metabolic Activation: HAMSTER, LIVER, S-9, AROCLOR 1254 (10 OR 30%), Method: PREINCUBATION
[5] = Test System: AMES SALMONELLA TYPHIMURIUM, Strain/Indicator: TA98, Metabolic Activation: NONE, Method: PREINCUBATION
[6] = Test System: AMES SALMONELLA TYPHIMURIUM, Strain/Indicator: TA98, Metabolic Activation: RAT, LIVER, S-9, AROCLOR 1254 (10 OR 30%), Method: PREINCUBATION
[7] = Test System: AMES SALMONELLA TYPHIMURIUM, Strain/Indicator: TA100, Metabolic Activation: HAMSTER, LIVER, S-9, AROCLOR 1254 (10 OR 30%), Method: PREINCUBATION
[8] = Test System: AMES SALMONELLA TYPHIMURIUM, Strain/Indicator: TA100, Metabolic Activation: NONE, Method: PREINCUBATION
[9] = Test System: AMES SALMONELLA TYPHIMURIUM, Strain/Indicator: TA100, Metabolic Activation: RAT, LIVER, S-9, AROCLOR 1254 (10 OR 30%), Method: PREINCUBATION
[10] = Test System: AMES SALMONELLA TYPHIMURIUM, Strain/Indicator: TA1535, Metabolic Activation: HAMSTER, LIVER, S-9, AROCLOR 1254 (10 OR 30%), Method: PREINCUBATION
[11] = Test System: AMES SALMONELLA TYPHIMURIUM, Strain/Indicator: TA1535, Metabolic Activation: NONE, Method: PREINCUBATION
[12] = Test System: AMES SALMONELLA TYPHIMURIUM, Strain/Indicator: TA1535, Metabolic Activation: RAT, LIVER, S-9, AROCLOR 1254 (10 OR 30%), Method: PREINCUBATION
[13] = Test System: AMES SALMONELLA TYPHIMURIUM, Strain/Indicator: TA1537, Metabolic Activation: NONE, Method: PREINCUBATION
[14] = Test System: AMES SALMONELLA TYPHIMURIUM, Strain/Indicator: TA100, Metabolic Activation: NONE, Method: STANDARD PLATE

`[Na+]` was tested, and the mutagenic call [1] was “inactive; negative”, the mutagenic call [2] was “inactive; negative” and the mutagenic call [3] was “inactive; negative”. The mutagenic call [4] was “inactive; negative”, the mutagenic call [5] was “inactive; negative” and the mutagenic call [6] was “inactive; negative”. The mutagenic call [7] was “inactive; negative”, the mutagenic call [8] was “inactive; negative” and the mutagenic call [9] was “inactive; negative”. The mutagenic call [10] was “inactive; negative”, the mutagenic call [11] was “inactive; negative” and the mutagenic call [12] was “inactive; negative”. For the same molecule, the mutagenic call (Test System: AMES SALMONELLA TYPHIMURIUM, Strain/Indicator: TA1537, Metabolic Activation: HAMSTER, LIVER, S-9, AROCLOR 1254 (30%), Method: PREINCUBATION) was “inactive; negative”, the mutagenic call [13] was “inactive; negative” and the mutagenic call (Test System: AMES SALMONELLA TYPHIMURIUM, Strain/Indicator: TA1537, Metabolic Activation: RAT, LIVER, S-9, AROCLOR 1254 (30%), Method: PREINCUBATION) was “inactive; negative”. The mutagenic call (Test System: CHINESE HAMSTER OVARY, Strain/Indicator: CHO-K1-BH4 (HGPRT), Metabolic Activation: NONE, Method: SUSPENSION/PLATE) was “inactive; negative”, the mutagenic call (Test System: CHINESE HAMSTER OVARY, Strain/Indicator: CHO-K1-BH4 (HGPRT), Metabolic Activation: RAT, LIVER, S-9, AROCLOR, Method: SUSPENSION/PLATE) was “inactive; negative” and the mutagenic call (Test System: MOUSE LYMPHOMA, Strain/Indicator: L5178Y (TK+/TK-), Metabolic Activation: NONE, Method: SUSPENSION/PLATE) was “active; positive”.
For `COc1ccc(CON(OC(C)=O)C(=O)c2ccccc2)cc1`, the mutagenic call [14] was “active; positive” and the mutagenic call (Test System: AMES SALMONELLA TYPHIMURIUM, Strain/Indicator: TA100, Metabolic Activation: RAT, S-9, AROCLOR, Method: STANDARD PLATE) was “active; positive”.
In the case of `CN(N=O)C(=O)N[C@@H]1O[C@H](CO)[C@H](O)[C@H](O)[C@H]1O`, the mutagenic call (Test System: CHINESE HAMSTER V-79, Strain/Indicator: V-79/8-AZAGUANINE, Metabolic Activation: NONE, Method: STANDARD PLATE) was “active; positive”.
With `O=C(O)[C@H](O)[C@@H](O)C(=O)O` the mutagenic call (End Point: IN VIVO MICRONUCLEUS, Test System: BONE MARROW POLYCHROMATIC ERYTHROCYTES, Species: MOUSE, Strain/Sex: DDY/MALE, Route: IP) was “inactive; negative; authors report chemical name as sodium d-tartrate with cas number of s”, the mutagenic call [2] was “inactive; negative” and the mutagenic call (Test System: AMES SALMONELLA TYPHIMURIUM, Strain/Indicator: TA97, Metabolic Activation: RAT, LIVER, S-9, AROCLOR 1254, Method: PREINCUBATION) was “inactive; negative”. For the same molecule, the mutagenic call [5] was “inactive; negative”, the mutagenic call (Test System: AMES SALMONELLA TYPHIMURIUM, Strain/Indicator: TA98, Metabolic Activation: NONE, Method: STANDARD PLATE) was “inactive; negative” and the mutagenic call (Test System: AMES SALMONELLA TYPHIMURIUM, Strain/Indicator: TA98, Metabolic Activation: RAT LIVER S-9, PHENOBARBITAL AND BETA-NAPHTHOFLAVONE, Method: PREINCUBATION) was “inactive; negative”. For the same molecule, the mutagenic call (Test System: AMES SALMONELLA TYPHIMURIUM, Strain/Indicator: TA98, Metabolic Activation: RAT, LIVER, S-9, AROCLOR 1254, Method: STANDARD PLATE) was “inactive; negative”, the mutagenic call [8] was “inactive; negative” and the mutagenic call [14] was “inactive; negative”. The mutagenic call (Test System: AMES SALMONELLA TYPHIMURIUM, Strain/Indicator: TA100, Metabolic Activation: RAT LIVER S-9, PHENOBARBITAL AND BETA-NAPHTHOFLAVONE, Method: PREINCUBATION) was “inactive; negative”, the mutagenic call (Test System: AMES SALMONELLA TYPHIMURIUM, Strain/Indicator: TA100, Metabolic Activation: RAT, LIVER, S-9, AROCLOR 1254, Method: STANDARD PLATE) was “inactive; negative” and the mutagenic call (Test System: AMES SALMONELLA TYPHIMURIUM, Strain/Indicator: TA102, Metabolic Activation: NONE, Method: PREINCUBATION) was “inactive; negative”. For the same molecule, the mutagenic call (Test System: AMES SALMONELLA TYPHIMURIUM, Strain/Indicator: TA102, Metabolic Activation: RAT, LIVER, S-9, AROCLOR 1254, Method: PREINCUBATION) was “inactive; negative”, the mutagenic call [11] was “inactive; negative” and the mutagenic call (Test System: AMES SALMONELLA TYPHIMURIUM, Strain/Indicator: TA1535, Metabolic Activation: NONE, Method: STANDARD PLATE) was “inactive; negative”. For the same molecule, the mutagenic call (Test System: AMES SALMONELLA TYPHIMURIUM, Strain/Indicator: TA1535, Metabolic Activation: RAT LIVER S-9, PHENOBARBITAL AND BETA-NAPHTHOFLAVONE, Method: PREINCUBATION) was “inactive; negative”, the mutagenic call (Test System: AMES SALMONELLA TYPHIMURIUM, Strain/Indicator: TA1535, Metabolic Activation: RAT, LIVER, S-9, AROCLOR 1254, Method: STANDARD PLATE) was “inactive; negative” and the mutagenic call [13] was “inactive; negative”. The mutagenic call (Test System: AMES SALMONELLA TYPHIMURIUM, Strain/Indicator: TA1537, Metabolic Activation: NONE, Method: STANDARD PLATE) was “inactive; negative”, the mutagenic call (Test System: AMES SALMONELLA TYPHIMURIUM, Strain/Indicator: TA1537, Metabolic Activation: RAT LIVER S-9, PHENOBARBITAL AND BETA-NAPHTHOFLAVONE, Method: PREINCUBATION) was “inactive; negative” and the mutagenic call (Test System: AMES SALMONELLA TYPHIMURIUM, Strain/Indicator: TA1537, Metabolic Activation: RAT, LIVER, S-9, AROCLOR 1254, Method: STANDARD PLATE) was “inactive; negative”. For the same molecule, the mutagenic call (Test System: AMES SALMONELLA TYPHIMURIUM, Strain/Indicator: TA1538, Metabolic Activation: NONE, Method: STANDARD PLATE) was “inactive; negative”, the mutagenic call (Test System: AMES SALMONELLA TYPHIMURIUM, Strain/Indicator: TA1538, Metabolic Activation: RAT, LIVER, S-9, AROCLOR 1254, Method: STANDARD PLATE) was “inactive; negative” and the mutagenic call (Test System: E. COLI, Strain/Indicator: WP2, Metabolic Activation: NONE, Method: STANDARD PLATE) was “inactive; negative”. For the same molecule, the mutagenic call (Test System: E. COLI, Strain/Indicator: WP2, Metabolic Activation: RAT, LIVER, S-9, AROCLOR 1254, Method: STANDARD PLATE) was “inactive; negative”, the mutagenic call (Test System: E.COLI, Strain/Indicator: WP2UVRA/PKM101, Metabolic Activation: NONE, Method: PREINCUBATION) was “inactive; negative” and the mutagenic call (Test System: E.COLI, Strain/Indicator: WP2UVRA/PKM101, Metabolic Activation: RAT LIVER S-9, PHENOBARBITAL AND BETA-NAPHTHOFLAVONE, Method: PREINCUBATION) was “inactive; negative”.
With `CC1=C(O)C(=O)C(O)CO1` (configuration not stated) the mutagenic call [8] was “active; positive” and the mutagenic call (Test System: AMES SALMONELLA TYPHIMURIUM, Strain/Indicator: TA100, Metabolic Activation: S-9, Method: PREINCUBATION) was “active; positive”.
With `CCC/C=C(/C=O)CC` the mutagenic call [1] was “inactive; negative”, the mutagenic call [2] was “inactive; negative” and the mutagenic call [3] was “inactive; negative”. For the same molecule, the mutagenic call [4] was “inactive; negative”, the mutagenic call [5] was “inactive; negative” and the mutagenic call [6] was “inactive; negative”. The mutagenic call [7] was “inactive; negative”, the mutagenic call [8] was “inactive; negative” and the mutagenic call [9] was “inactive; negative”. For the same molecule, the mutagenic call [10] was “inactive; negative”, the mutagenic call [11] was “inactive; negative” and the mutagenic call [12] was “inactive; negative”.

Source: PubChem BioAssay AID1259407 (Chemical Carcinogenesis Research Information System (CCRIS), 2018)
